According to paper PMC9486805, “Identification of a Phage Display-Derived Peptide Interacting with the N-Terminal Region of Factor VII Activating Protease (FSAP) Enables Characterization of Zymogen Activation” (ACS Chemical Biology, 2022):
Entries after “also recorded” stand apart in the source; their conditions may differ.

Experiments:
Factor Xa = experiment: Specificity: factor Xa; assay type: biochemical; conditions: Factor Xa 20 nM; peptide 0-50 μM; S-2765 (Fig S7)
Description: Fig S7. […]
(§1) Bend, IN, USA) except plasminogen and FSAP, which were isolated in house; and pro-uPA was from Grünenthal (Stolberg, Germany). All chromogenic substrates were from Hyphen Biomed (Neuville Sur Oise, France). Experiments were carried out in TBS with Tween-20 (0.1 % wt/ vol) BSA (0.3% wt/vol) and CaCl2 (2 mM). Absorbance at 405 nm was measured over time and the enzyme activity is depicted was measured in duplicates (mean + or -range) and similar results were obtained in 3

pro-FSAP in human plasma = molecular target: T1, pro-FSAP in human plasma (Homo sapiens, UniProt Q14520); experiment: Immunocapture of pro-FSAP from plasma and conversion of pro-uPA to uPA; assay type: biochemical; conditions: hirudin plasma 1:12, 1 h at 37 °C; NNKC9/41 0–25 μM, histones 0–25 μg/mL; PNAPEP1344; three donors (Fig 4B)
T1 construct: from tissue; host or cells: human hirudin or citrate plasma from healthy donors, diluted 1:12
Description: Figure 4 Comparison of different methods to measure pro-FSAP activation in plasma: (A) hirudin plasma (1:12 dilution) was incubated with histones (0–25 μg/mL), NNKC9/41, or its Ser–Ser linear control (0–25 μM) and the fluorogenic substrate turnover (Ac–Ala–Lys–Nle–Arg–AMC) was monitored. (B) From the same experiment as in (A) after 1 h incubation at 37 °C, samples were captured on anti-FSAP coated wells and the conversion of added pro-uPA to active uPA was measured by determining the turnover of the chromogenic substrate PNAPEP1344 (25 μM). (C) From the same experiment as in (A) after 1 h incubation at 37 °C, samples were captured on anti-FSAP coated wells and α2-antiplasmin antibody was used to detect the formation of FSAP−α2-antiplasmin complexes. […] In (F), the samples with MA-FSAP-570 were not analyzed since this antibody would interfere in the sandwich ELISA. […]
Human citrate plasma (0.38% w/v) or hirudin plasma (25 μg/mL Lepirudin) was obtained from five healthy donors. […] Hydrolysis of the fluorogenic substrates was measured using a Synergy HI plate reader with excitation at 320 nm and emission at 460 nm at 37 °C for 60 min. The maximal velocity was calculated from the linear part of the progress curve. […]

plasminogen = experiment: Specificity towards pro-enzymes: plasminogen; assay type: biochemical; conditions: plasminogen 50 nM; peptide 0-50 μM; CS41; duplicates, 3 experiments (Fig S7)
Description: Fig S7. […]
as §1

[1] = test system: light chain/serine protease domain (SPD); experiment: Binding of biotinylated peptides to captured recombinant FSAP light chain/SPD; set-up: species or system human; conditions: peptide 1 μM; triplicate wells (Fig 2E)
Description: (§2) Figure 2 NNKC9/41 interacts with the NTR of pro-FSAP: (A) To determine peptide binding to pro-FSAP, wells were coated with 2 μg/mL pro-FSAP and biotinylated NNKC9/41 and NNK11/189 and their respective scrambled controls were added in different concentration (0–5 μM). Peroxidase-labeled streptavidin was used to detect peptide binding. (B) Same procedure as in (A) except that different proteins were immobilized and biotinylated NNKC9/41 (0–30 μM) was added and its binding was measured. (C) Schematic structure of pro-FSAP with the heavy chain consisting of an NTR, three EGF domains, and a kringle domain, followed by the light chain harboring the serine protease domain (SPD). The binding domains of antibodies used in this study are indicated. (D) Recombinant complete heavy chain (heavy) and truncated heavy chain variants ΔNTR, ΔEGF1, ΔEGF2, ΔEGF3, and ΔKringle were expressed in bacteria and analyzed by sodium dodecyl sulfate poly(acrylamide) gel electrophoresis (SDS-PAGE) followed by Coomassie staining. […] Biotinylated NNKC9/41 or the scrambled control peptide was added at 1 μM and peptide binding was measured with peroxidase-linked streptavidin. […]
(§3) Wells were coated with anti-FSAP polyclonal antibodies (5 μg/mL). […] Subsequently, the plates were washed, and bound peptides were detected with peroxidase-coupled streptavidin. […]

ΔNTR mutant = experiment: Binding of biotinylated peptides to captured ΔNTR mutant; set-up: species or system human; conditions: peptide 1 μM; triplicate wells (Fig 2E)
Description: as §2, §3

[2] = test system: recombinant serine protease domain (SPD) of FSAP; experiment: Activity of recombinant serine protease domain of FSAP; assay type: biochemical, human; conditions: rSPD 20 nM; peptide 0-50 μM; S2288 250 µM (Fig S7A)
Description: Fig S7. […]
as §1, with “nM) and Factor Xa (20 nM) with S-2765 (250 µM). pro-FSAP (20 nM) and recombinant serine protease domain (rSPD) (20 nM) with S2288 (250 µM). All pro-enzymes and enzyme were obtained from Enzyme Research Laboratories (South Bend,” for “Bend,”

T1 sequence (Q14520 24-560): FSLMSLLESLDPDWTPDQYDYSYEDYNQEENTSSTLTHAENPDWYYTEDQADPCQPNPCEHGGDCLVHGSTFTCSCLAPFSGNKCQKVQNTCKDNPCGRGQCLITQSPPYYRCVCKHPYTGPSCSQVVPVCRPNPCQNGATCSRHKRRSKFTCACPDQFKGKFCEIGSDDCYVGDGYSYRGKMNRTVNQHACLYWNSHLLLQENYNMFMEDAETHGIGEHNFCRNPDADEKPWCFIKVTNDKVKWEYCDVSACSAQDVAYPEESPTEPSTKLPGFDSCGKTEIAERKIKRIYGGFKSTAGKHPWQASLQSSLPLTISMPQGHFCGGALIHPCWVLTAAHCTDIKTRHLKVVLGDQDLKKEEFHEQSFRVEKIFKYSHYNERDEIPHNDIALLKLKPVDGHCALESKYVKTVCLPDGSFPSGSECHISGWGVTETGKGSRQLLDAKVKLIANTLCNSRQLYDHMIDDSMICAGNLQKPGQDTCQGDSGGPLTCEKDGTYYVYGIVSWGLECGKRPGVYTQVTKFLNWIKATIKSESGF

## CRGAMWMYKRC [NNKC9/41]
Factor Xa
  effect on activity: did not influence the activity
pro-FSAP in human plasma
  pro-uPA conversion: weaker than histones; also recorded: concentration-dependent effect
plasminogen
  effect on activity: did not influence the activity
[1]
  peptide binding to light chain/SPD: very low binding
ΔNTR mutant
  peptide binding to ΔNTR mutant: very low binding
[2]
  effect on activity of recombinant SPD: did not alter the activity
